Literature values as cited in article PMC7395068, “The evolution of strategies to minimise the risk of human drug-induced liver injury (DILI) in drug discovery and development” (Archives of Toxicology, 2020).
Counter-ions that a name gives are not always drawn.

Tested on: human hepatocytes
Conditions: In vitro Assay; ref Xu 2008; cited from earlier work

| Structure (SMILES) | Structural based (HCI) |
| --- | --- |
| CC(=O)c1ccc(S(=O)(=O)NC(=O)NC2CCCCC2)cc1 [acetohexamide] | +VE |
| N[C@H](C(=O)O)[C@@H]1CC(Cl)=NO1 [acivicin] | -VE |
| O.O=C1NC(=O)C(=O)C(=O)N1 [alloxan hydrate] | -VE |
| O=c1[nH]cnc2c1ncn2[C@H]1CC[C@@H](CO)O1 [didanosine] | -VE |
| C#C[C@]1(OC(C)=O)CC[C@H]2[C@@H]3CCC4=C[C@@H](OC(C)=O)CC[C@@H]4[C@H]3CC[C@@]21C [ethynodiol diacetate] | -VE |
| Nc1nc(=O)[nH]cc1F [flucytosine] | +VE |
| Nc1nc2ncc(CNc3ccc(C(=O)N[C@@H](CCC(=O)O)C(=O)O)cc3)nc2c(=O)[nH]1 [folate] | -VE |
| NC[C@H]1O[C@H](O[C@H]2[C@H](O)[C@@H](O[C@H]3O[C@H](CO)[C@@H](O)[C@H](N)[C@H]3O)[C@H](N)C[C@@H]2N)[C@H](O)[C@@H](O)[C@@H]1O [kanamycin sulfate] | -VE |
| N=C(N)NCCC[C@H](N)C(=O)O [l-arginine] | -VE |
| CCn1cc(C(=O)O)c(=O)c2cc(F)c(N3CCNC(C)C3)c(F)c21 (centres unmarked) [lomefloxacin] | -VE |
| O=C(O)/C=C\C(=O)O [maleic acid] | -VE |
| COC(=O)Nc1nc2ccc(C(=O)c3ccccc3)cc2[nH]1 [mebendazole] | +VE |
| NCCC(O)(P(=O)(O)O)P(=O)(O)O [pamidronate] | -VE |
| CC1(C)S[C@@H]2[C@H](NC(=O)Cc3ccccc3)C(=O)N2[C@H]1C(=O)O [penicillin g] | -VE |
| CCOc1ccc(NC(C)=O)cc1 [phenacetin] | +VE |
| C[C@]12C=CC(=O)C=C1CC[C@@H]1[C@@H]2C(=O)C[C@@]2(C)[C@H]1CC[C@]2(O)C(=O)CO [prednisone] | -VE |
| CN1CCN(CC/C=C2/c3ccccc3Sc3ccc(S(=O)(=O)N(C)C)cc32)CC1 [thiothixene] | -VE |
| Nc1ncnc2c1ncn2[C@@H]1O[C@H](CO)[C@@H](O)[C@@H]1O [vidarabine] | -VE |

Same assay, conditions: cited from earlier work

| Structure (SMILES) | Structural based (HCI) |
| --- | --- |
| Cl[C@H]1[C@H](Cl)[C@@H](Cl)[C@@H](Cl)[C@H](Cl)[C@H]1Cl [1,2,3,4,5,6-hexachlorocyclohexane] | -VE |
| C#C[C@]1(O)CC[C@H]2[C@@H]3CCC4=Cc5oncc5C[C@]4(C)[C@H]3CC[C@@]21C [danazol] | -VE |
| CC[N+](C)(C)c1cccc(O)c1 [edrophonium chloride] | -VE |
| COCCCC/C(=N\OCCN)c1ccc(C(F)(F)F)cc1 [fluvoxamine] | -VE |

Same assay, conditions: human hepatocyte imaging; ref Xu 2008; cited from earlier work

| Structure (SMILES) | Structural based (HCI), In vitro Assay |
| --- | --- |
| CC[N+](CC)(CC)CCOc1cccc(OCC[N+](CC)(CC)CC)c1OCC[N+](CC)(CC)CC [gallamine triethiodide] | -VE |
| C[C@H](CCC(=O)O)[C@H]1CC[C@H]2[C@@H]3CC[C@@H]4C[C@H](O)CC[C@]4(C)[C@H]3CC[C@]12C [lithocholic acid] | -VE |
| COc1cccc(OC)c1C(=O)N[C@@H]1C(=O)N2[C@@H]1SC(C)(C)[C@@H]2C(=O)O [methicillin sodium] | -VE |
| CC[C@@H](CO)NC(=O)[C@@H]1C=C2c3cccc4[nH]cc(c34)C[C@H]2N(C)C1 [methylergonovine maleate] | -VE |
| NC[C@@H]1O[C@H](O[C@H]2[C@@H](O)[C@H](O[C@@H]3[C@@H](O)[C@H](N)C[C@H](N)[C@H]3O[C@H]3O[C@H](CO)[C@@H](O)[C@H](O)[C@H]3N)O[C@@H]2CO)[C@H](N)[C@@H](O)[C@@H]1O [paromomycin] | -VE |

Tested on: not given
Conditions: in vivo; cited from earlier work

| Structure (SMILES) | In vivo DILI |
| --- | --- |
| Cl[C@H]1[C@H](Cl)[C@@H](Cl)[C@@H](Cl)[C@H](Cl)[C@H]1Cl [1,2,3,4,5,6-hexachlorocyclohexane] | +VE |

Same assay, conditions: ref O'Brien 2006; cited from earlier work

| Structure (SMILES) | In vivo DILI |
| --- | --- |
| O.O=C1NC(=O)C(=O)C(=O)N1 [alloxan hydrate] | +VE |

Same assay, conditions: ref Xu 2008; cited from earlier work

| Structure (SMILES) | In vivo DILI |
| --- | --- |
| CC(=O)c1ccc(S(=O)(=O)NC(=O)NC2CCCCC2)cc1 [acetohexamide] | +VE |
| N[C@H](C(=O)O)[C@@H]1CC(Cl)=NO1 [acivicin] | -VE |
| O.O=C1NC(=O)C(=O)C(=O)N1 [alloxan hydrate] | -VE |
